pIC50: −log10 of the molar value. Values joined by “and” are separate entries in the source; they are usually repeats but may differ in a detail not shown here. Identical values can stand only once.
These compounds were tested against T1, human IDO1 (Homo sapiens, UniProt P14902) (assay: IDO inhibition assay in human IDO1/HEK293 cells (IDO1 HEK Human)). Details: HEK293 cells stably expressing human IDO1; 20 hours incubation; absorbance at 490 nm after Ehrlich reagent.
T1 construct: expressed in transfected cells
Format: cell-based
How it was run: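 Kynurenine output of stably IDO1-transfected HEK293 cells was measured by absorbance at 490 nm after mixing supernatant with 0.2% Ehrlich reagent, following TCA stop (0.2% final, 50° C., 30 min). Cells were incubated 20 hours with compound. Inhibition was scaled between DMSO and 500 nM reference standard.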

T1 sequence (P14902 whole entry): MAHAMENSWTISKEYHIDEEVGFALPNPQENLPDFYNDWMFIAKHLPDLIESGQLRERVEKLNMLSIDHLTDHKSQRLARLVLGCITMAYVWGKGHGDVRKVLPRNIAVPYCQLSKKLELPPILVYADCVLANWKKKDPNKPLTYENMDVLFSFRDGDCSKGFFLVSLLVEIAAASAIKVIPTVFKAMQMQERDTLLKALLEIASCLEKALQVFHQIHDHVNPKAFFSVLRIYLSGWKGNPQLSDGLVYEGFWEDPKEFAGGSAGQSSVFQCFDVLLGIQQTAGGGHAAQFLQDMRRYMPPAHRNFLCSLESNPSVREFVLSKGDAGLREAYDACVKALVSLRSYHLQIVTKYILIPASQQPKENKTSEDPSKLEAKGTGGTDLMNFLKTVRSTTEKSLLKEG

Structure (SMILES) | pIC50
Cc1ccc(NC(=O)Nc2cc(-c3cc(F)ccc3C(=O)O)cc3c2O[C@@H](C)[C@H]3CCC(F)(F)F)cc1 (relative stereo) [Example 117, rel-4-fluoro-2-((2R,3R)-2-methyl-7-(3-(p-tolyl)ureido)-3-(3,3,3-trifluoropropyl)-2,3-dihydrobenzofuran-5-yl)benzoic acid] | 5.60
Cc1ccc(NC(=O)Nc2cc(-c3ccccc3-c3nnn[nH]3)cc3c2OCCC(C)C3c2ccccc2)cc1 (single isomer, unassigned) [Example 45, 1-(7-(2-(1H-tetrazol-5-yl)phenyl)-4-methyl-5-phenyl-2,3,4,5-tetrahydrobenzo[b]oxepin-9-yl)-3-(p-tolyl)urea] | 6.97 and 6.54
O=C(Nc1cc(-c2ccccc2-c2nnn[nH]2)cc2c1OCCCC2c1ccccc1)NC1CC1 (single isomer, unassigned) [23 (En. 1), 1-(7-(2-(1H-tetrazol-5-yl)phenyl)-5-phenyl-2,3,4,5-tetrahydrobenzo[b]oxepin-9-yl)-3-cyclopropylurea] | 5.46
c1ccc(C2CCCOc3c(Nc4ccnc5ccnn45)cc(-c4ccccc4-c4nnn[nH]4)cc32)cc1 (single isomer, unassigned) [Example 81, N-(7-(2-(1H-tetrazol-5-yl)phenyl)-5-phenyl-2,3,4,5-tetrahydrobenzo[b]oxepin-9-yl) pyrazolo[1,5-a]pyrimidin-7-amine] | 5.60
C=C(C)C1Oc2c(NC(=O)Nc3ccc(C)cc3)cc(-c3ccc(OC)c(C(=O)O)c3)cc2C1c1ccccc1 (racemic) [Example 97] | 5.74
Cc1ccc(CC(=O)Nc2cc(-c3ccccc3-c3nnn[nH]3)cc3c2OCCC(C)C3c2ccccc2)cc1 (single isomer, unassigned) [Example 47, N-(7-(2-(1H-tetrazol-5-yl)phenyl)-4-methyl-5-phenyl-2,3,4,5-tetrahydrobenzo[b]oxepin-9-yl)-2-(p-tolyl)acetamide] | 6.55
Cc1ccc(NC(=O)Nc2cc(-c3ccccc3C(=O)O)cc3c2OCCCC3c2ccccc2)cc1 (single isomer, unassigned) [Example 8-2, 2-(5-phenyl-9-(3-(p-tolyl)ureido)-2,3,4,5-tetrahydrobenzo[b]oxepin-7-yl)benzoic acid] | 6.01
Cc1ccc(NC(=O)Nc2cc(-c3cc(F)ccc3C(=O)O)cc3c2O[C@@H](C)[C@@H]3CCC(F)(F)F)cc1 (relative stereo) [Example 119, rel-4-fluoro-2-((2R,3S)-2-methyl-7-(3-(p-tolyl)ureido)-3-(3,3,3-trifluoropropyl)-2,3-dihydrobenzofuran-5-yl)benzoic acid] | 6.11
Fc1cnc(Nc2cc(-c3ccccc3-c3nnn[nH]3)cc3c2OCCCC3c2ccccc2)nc1 (single isomer, unassigned) [63 (En. 1), N-(7-(2-(1H-tetrazol-5-yl)phenyl)-5-phenyl-2,3,4,5-tetrahydrobenzo[b]oxepin-9-yl)-5-fluoropyrimidin-2-amine] | 6.27
Cc1ccc(CC(=O)Nc2cc(-c3ccccc3-c3nnn[nH]3)cc3c2OCCCC3C)cc1 (centres unmarked) [Example 32, N-(7-(2-(1H-tetrazol-5-yl)phenyl)-5-methyl-2,3,4,5-tetrahydrobenzo[b]oxepin-9-yl)-2-(p-tolyl)acetamide] | 6.38
CC(=O)NS(=O)(=O)c1ccccc1-c1cc(NC(=O)Nc2ccc(C)cc2)c2c(c1)C(c1ccccc1)CCCO2 (single isomer, unassigned) [Example 58, N-((2-(5-phenyl-9-(3′-(p-tolyl)ureido)-2,3,4,5-tetrahydrobenzo[b]oxepin-7-yl)phenyl)sulfonyl)acetamide] | 5.87
CC1(C)Oc2c(NC(=O)Nc3ccc(C(F)(F)F)nc3)cc(-c3ccccc3-c3nnn[nH]3)cc2C1c1ccccc1 (racemic) [Example 127, (±)-1-(5-(2-(1H-Tetrazol-5-yl)phenyl)-2,2-dimethyl-3-phenyl-2,3-dihydrobenzofuran-7-yl)-3-(6-(trifluoromethyl)pyridin-3-yl)urea] | 5.68
O=C(Nc1cc(-c2ccccc2-c2nnn[nH]2)cc2c1OCCCC2c1ccccc1)NC1CC1 (single isomer, unassigned) [23 (En. 2), 1-(7-(2-(1H-tetrazol-5-yl)phenyl)-5-phenyl-2,3,4,5-tetrahydrobenzo[b]oxepin-9-yl)-3-cyclopropylurea] | < 5.22

The next lines start with the values.

pIC50 | Structure (SMILES)
7.45 | Cc1ccc(NC(=O)Nc2cc(-c3ccccc3-c3nnn[nH]3)cc3c2OCCCC3c2ccccc2)nc1 (single isomer, unassigned) [Example 3, 1-(7-(2-(1H-tetrazol-5-yl)phenyl)-5-phenyl-2,3,4,5-tetrahydrobenzo[b]oxepin-9-yl)-3-(5-methylpyridin-2-yl)urea]
8.20 | Cc1ccc(NC(=O)Nc2cc(-c3ccccc3-c3nnn[nH]3)cc3c2OC(C)(C)C3c2ccccc2)cc1 (racemic) [Example 123, (±)-1-(5-(2-(1H-Tetrazol-5-yl)phenyl)-2,2-dimethyl-3-phenyl-2,3-dihydrobenzofuran-7-yl)-3-(p-tolyl)urea]
7.74 | CCC(C)C1CCCOc2c(NC(=O)Nc3ccc(C)cc3)cc(-c3ccccc3-c3nnn[nH]3)cc21 (single isomer, unassigned) [Example 29, 1-(7-(2-(1H-tetrazol-5-yl)phenyl)-5-(sec-butyl)-2,3,4,5-tetrahydrobenzo[b]oxepin-9-yl)-3-(p-tolyl)urea]
8.51 | Cc1nc2ccc(Nc3cc(-c4ccccc4-c4nnn[nH]4)cc4c3OCCCC4c3ccccc3)cc2s1 (single isomer, unassigned) [Example 71, N-(7-(2-(1H-tetrazol-5-yl)phenyl)-5-phenyl-2,3,4,5-tetrahydrobenzo[b]oxepin-9-yl)-2-methylbenzo[d]thiazol-6-amine]
7.28 | Cc1ccc(NC(=O)Nc2cc(-c3ccccc3-c3nnn[nH]3)cc3c2OCCCC3c2ccccc2)nc1 (centres unmarked) [Example 17, 1-(7-(2-(1H-tetrazol-5-yl)phenyl)-5-phenyl-2,3,4,5-tetrahydrobenzo[b]oxepin-9-yl)-3-(5-methylpyridin-2-yl)urea]
8.36 | Cc1ccc(NC(=O)Nc2cc(-c3ccccc3-c3nnn[nH]3)cc3c2OCCCC3C(C)C)cc1 (racemic) [Example 24, 1-(7-(2-(1H-tetrazol-5-yl)phenyl)-5-isopropyl-2,3,4,5-tetrahydrobenzo[b]oxepin-9-yl)-3-(p-tolyl)urea]
6.66 | Cc1ccc(CC(=O)Nc2cc(-c3ccccc3-c3nnn[nH]3)cc3c2OCCCC3C2CC2)cc1 (single isomer, unassigned) [37 (En. 1), N-(7-(2-(1H-tetrazol-5-yl)phenyl)-5-cyclopropyl-2,3,4,5-tetrahydrobenzo[b]oxepin-9-yl)-2-(p-tolyl)acetamide]
7.74 | CC[C@@H]1Oc2c(NC(=O)Nc3ccc(C)cc3)cc(-c3ccccc3-c3nnn[nH]3)cc2[C@H]1c1ccccc1 (racemic) [Example 90, (+/−)-1-((trans)-5-(2-(1H-tetrazol-5-yl)phenyl)-3-phenyl-2-ethyl-2,3-dihydrobenzofuran-7-yl)-3-(p-tolyl)urea]
7.06 | C=CC1Oc2c(NC(=O)Nc3ccccc3F)cc(-c3ccccc3-c3nnn[nH]3)cc2C1c1ccccc1 (racemic) [Example 95]
7.49 | C=C[C@H]1Oc2c(NC(=O)Nc3ccc(C)cc3)cc(-c3ccccc3-c3nnn[nH]3)cc2[C@@H]1c1ccccc1 (racemic) [Example 85, (+/−)-1-((trans)-5-(2-(1H-tetrazol-5-yl)phenyl)-3-phenyl-2-vinyl-2,3-dihydrobenzofuran-7-yl)-3-(p-tolyl)urea]

From patent US12145927B2 (BRISTOL-MYERS SQUIBB COMPANY, priority 2018, dated 2024)
